Tests used:
[1] = target: T1, Human immunodeficiency virus type 1 protease (Human immunodeficiency virus 1, UniProt Q72874); assay: (§1) Inhibitory activity was evaluated against HIV-1 protease
[2] = target: T1, Human immunodeficiency virus type 1 protease; assay: as §1; remark: listed apart in the source

IC50 [1]: > 100 µM
IC50 [2]: > 100 µM
SMILES: OC1N=C(Cc2ccccc2)P(O)(O)=C(Cc2ccccc2)N1 (configuration not stated) [4,6-Dibenzyl-5-hydroxy-5-oxo-5lambda*5*-[1,3,5]diazaphosphinan-2-one]
